# Measurements reported in patent US8481576B2 (Abbott GmbH & Co. KG, priority 2004, dated 2013).
# Structures can show the parent of a compound that is named as a salt.
# Biological target: T1, h5-HT5A receptor (Homo sapiens, UniProt P47898)
# T1 construct: expressed in transfected cells; host or cells: HEK293
# Assay: [3H]5-CT binding assay h5-HT5A
# Details: membranes from HEK293 cells expressing h5-HT5A, 2.5 nM [3H]5-CT; read-out: Binding affinity 5-HT5A (Ki)
# Description: 1. [^3H]5-CT binding assay h5-HT5A
# Membranes from HEK293-cells, which permanently express the h5-HT5A receptor gene, were incubated in 100 mM Tris-HCl-buffer (pH 7.7), containing 1 mM EDTA in the presence of 2.5 nM [^3H]5-CT (600 μl total volume). The total binding is defined as the binding which is observed when the membranes are incubated alone in the presence of the radioligand. The inhibition induced by the compound is determined by incubation of cell membranes in the presence of the radioligand, and of different concentrations of the compound of interest. Unspecific binding is defined by the binding of [^3H]5-CT, which is obtained by incubation of the membranes as for the total binding but in the presence of 10 μM methiothepine. Following an incubation of 75 minutes at 30° C. the membrane suspension is filtered through GF/B-filters, wrapped in 0.03% PEI, wherein a Skatron® harvest system is used. The radioactivity retained in the filter is quantified by liquid scintillation counting.
# In both assays, different concentrations of the test substances are used, and the Ki or the IC50 values are determined.
# T1 sequence (P47898 whole entry): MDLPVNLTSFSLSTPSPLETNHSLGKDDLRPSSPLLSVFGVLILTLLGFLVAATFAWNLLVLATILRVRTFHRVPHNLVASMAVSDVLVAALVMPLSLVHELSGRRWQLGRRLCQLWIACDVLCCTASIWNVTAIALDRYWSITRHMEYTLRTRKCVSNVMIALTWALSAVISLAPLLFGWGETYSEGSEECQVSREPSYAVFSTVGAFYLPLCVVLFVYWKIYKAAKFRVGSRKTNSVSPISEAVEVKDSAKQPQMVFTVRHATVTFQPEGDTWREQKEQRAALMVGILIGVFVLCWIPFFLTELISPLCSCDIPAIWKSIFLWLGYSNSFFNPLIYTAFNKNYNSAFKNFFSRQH
row,Compound,Ki
1,"COc1cccc(OC)c1CNC(=N)Nc1nc(-c2cc(Cl)ccc2Cl)cs1 [Example 21, N-[4-(2,5-dichlorophenyl)-1,3-thiazole-2-yl]-N′-(2,6-dimethoxybenzyl)guanidine hydrobromide]",< 50 nM
2,"COc1cccc(OC)c1CNC(=N)Nc1nc(-c2ccsc2)cs1 [Example 72, N-(2,6-dimethoxybenzyl)-N′-[4-(3-thienyl)-1,3-thiazole-2-yl]guanidine acetate]",< 50 nM
3,"COc1cccc(OC)c1CNC(=N)Nc1ncc(-c2ccc(F)cc2)s1 [Example 128, N-(2,6-dimethoxybenzyl)-N′-[5-(4-fluorophenyl)-1,3-thiazole-2-yl]guanidine]",< 50 nM
4,"COc1cccc(OC)c1CNC(=N)Nc1nc(C(F)(F)F)cs1 [Example 53, N-(2,6-dimethoxybenzyl)-N′-[4-(trifluoromethyl)-1,3-thiazole-2-yl]guanidine]",50 to 500 nM
5,"N=C(NCc1cccc(Cl)c1)Nc1nccs1 [Example 13, N-(3-chlorobenzyl)-N′-1,3-thiazole-2-ylguanidine hydrochloride]",> 500 nM
6,"COc1cccc(OC)c1CNC(=N)Nc1nc(-c2ccc(S(C)(=O)=O)cc2)cs1 [Example 82, N-(2,6-dimethoxybenzyl)-N′-{4-[4-(methylsulfonyl)phenyl]-1,3-thiazole-2-yl}guanidine hydrobromide]",50 to 500 nM
7,"COc1ccccc1CNC(=N)Nc1nc(-c2ccccc2)cs1 [Example 31, N-(2-methoxybenzyl)-N′-(4-phenyl-1,3-thiazole-2-yl)guanidine]",50 to 500 nM
8,"COc1cccc(OC)c1CNC(=N)Nc1nc(-c2c(OC)cccc2OC)cs1 [Example 113, N-(2,6-dimethoxybenzyl)-N′-[4-(2,6-dimethoxyphenyl)-1,3-thiazole-2-yl]guanidine]",< 50 nM
9,"COc1cccc(OC)c1CNC(=N)Nc1nc(-c2ccc(F)cc2)c[nH]1 [Example 191, N-(2,6-dimethoxybenzyl)-N′-[4-(4-fluorophenyl)-1H-imidazole-2-yl]guanidine acetate]",< 50 nM
10,"COc1cc(F)ccc1-c1csc(NC(=N)NCc2c(OC)cccc2OC)n1 [Example 111, N-(2,6-dimethoxybenzyl)-N′-[4-(4-fluoro-2-methoxyphenyl)-1,3-thiazole-2-yl]guanidine]",< 50 nM
11,"COc1cccc(OC)c1CNC(=N)Nc1nc(-c2ccc(Cl)cc2)cs1 [Example 38, N-[4-(4-chlorophenyl)-1,3-thiazole-2-yl]-N′-(2,6-dimethoxybenzyl)guanidine]",50 to 500 nM
12,"COc1ccccc1CNC(=N)Nc1nnc(C)[nH]1 [Example 185, N-(2-methoxybenzyl)-N′-(5-methyl-4H-1,2,4-triazole-3-yl)guanidine acetate]",> 500 nM
13,"COc1ccccc1CNC(=N)Nc1nc(C)cs1 [Example 39, N-(2-methoxybenzyl)-N′-(4-methyl-1,3-thiazole-2-yl)guanidine (2E)-But-2-endioate]",< 50 nM
14,"CNC(=Nc1nccs1)NCc1ccccc1OC [Example 24, N-(2-methoxybenzyl)-N′-methyl-N″-1,3-thiazole-2-ylguanidine (2E)-But-2-endioate]",> 500 nM
15,"COc1cccc(OC)c1CNC(=N)Nc1nc(C23CC4CC(CC(C4)C2)C3)cs1 [Example 85, N-[4-(1-adamantyl)-1,3-thiazole-2-yl]-N′-(2,6-dimethoxybenzyl)guanidine hydrobromide]",< 50 nM
16,"COc1cccc(OC)c1CNC(=N)Nc1nc2c(s1)CN(C(C)=O)CC2 [Example 224, N-(5-acetyl-4,5,6,7-tetrahydro[1,3]thiazolo[5,4-c]pyridine-2-yl)-N′-(2,6-dimethoxybenzyl)guanidine]",< 50 nM
17,"COc1ccccc1CNC(=N)Nc1nc(-c2ccccc2)c[nH]1 [Example 188, N-(2-methoxybenzyl)-N′-(4-phenyl-1H-imidazole-2-yl)guanidine acetate]",< 50 nM
18,"COc1cccc(OC)c1CNC(=N)Nc1nc(-c2cccs2)cs1 [Example 90, N-(2,6-dimethoxybenzyl)-N′-[4-(2-thienyl)-1,3-thiazole-2-yl]guanidine hydrobromide]",< 50 nM
19,"COc1ccccc1CNC(=N)Nc1nc2ccccc2[nH]1 [Example 93, N-1H-benzimidazole-2-yl-N′-(2-methoxybenzyl)guanidine acetate]",< 50 nM
20,"COc1cccc(OC)c1CNC(=N)Nc1nc2ccccc2[nH]1 [Example 182, N-1H-benzimidazole-2-yl-N′-(2,6-dimethoxybenzyl)guanidine diacetate]",< 50 nM
21,"COc1cccc(OC)c1CNC(=N)Nc1cc(-c2ccc(Cl)cc2)[nH]n1 [Example 212, N-[5-(4-chlorophenyl)-1H-pyrazole-3-yl]-N′-(2,6-dimethoxybenzyl)guanidine]",< 50 nM
22,"COc1ccccc1CNC(=N)Nc1nc(-c2ccccc2C(F)(F)F)cs1 [Example 103, N-(2-methoxybenzyl)-N′-{4-[2-(trifluoromethyl)phenyl]-1,3-thiazole-2-yl}guanidine]",50 to 500 nM
23,"COc1ccccc1CNC(=N)Nc1nc(-c2ccc(F)cc2)co1 [Example 198, N-[4-(4-fluorophenyl)-1,3-oxazole-2-yl]-N′-(2-methoxybenzyl)guanidine]",< 50 nM
24,"N-(2-methoxybenzyl)-N′-1,3-thiazole-2-ylguanidine hydrochloride [Example 11]",50 to 500 nM
25,"COc1cccc(OC)c1CNC(=N)Nc1nc(-c2ccc(F)cn2)cs1 [Example 144, N-(2,6-dimethoxybenzyl)-N′-[4-(5-fluoropyridine-2-yl)-1,3-thiazole-2-yl]guanidine]",< 50 nM
26,"COc1cccc(OC)c1CNC(=N)Nc1nc(-c2cc(C)cs2)cs1 [Example 121, N-(2,6-dimethoxybenzyl)-N′-[4-(4-methyl-2-thienyl)-1,3-thiazole-2-yl]guanidine]",< 50 nM
27,"COc1ccccc1CNC(=N)Nc1nc(C)c(C)o1 [Example 173, N-(4,5-dimethyl-1,3-oxazole-2-yl)-N′-(2-methoxybenzyl)guanidine]",50 to 500 nM
28,"COc1ccccc1CCNC(=N)Nc1nccs1 [Example 16, N-[2-(2-methoxyphenyl)ethyl]-N′-1,3-thiazole-2-ylguanidine hydrochloride]",> 500 nM
29,"COc1cccc(OC)c1CNC(=N)Nc1nc2c(s1)CN(S(=O)(=O)c1ccccc1)CC2 [Example 225, N-(2,6-dimethoxybenzyl)-N′-[5-(phenylsulfonyl)-4,5,6,7-tetrahydro[1,3]thiazolo[5,4-c]pyridine-2-yl]guanidine]",< 50 nM
30,"COc1cccc(Cl)c1CNC(=N)Nc1nccs1 [Example 6, N-(2-chloro-6-methoxybenzyl)-N′-1,3-thiazole-2-ylguanidine hydrochloride]",< 50 nM

# Now from value to compound:
row,Ki,Compound
1,< 50 nM,"COc1cccc(OC)c1CNC(=N)Nc1nc(C(=O)NC(C)C)cs1 [Example 196, 2-{[[(2,6-dimethoxybenzyl)amino](imino)methyl]amino}-N-isopropyl-1,3-thiazole-4-carboxamide]"
2,< 50 nM,"COc1cccc(Cl)c1CNC(=N)Nc1nc(-c2ccccn2)cs1 [Example 133, N-(2-chloro-6-methoxybenzyl)-N′-(4-pyridine-2-yl-1,3-thiazole-2-yl)guanidine]"
3,< 50 nM,"COc1cccc(OC)c1CNC(=N)Nc1nc2ccccc2s1 [Example 27, N-1,3-benzothiazole-2-yl-N′-(2,6-dimethoxybenzypguanidine (2E)-But-2-endioate]"
4,50 to 500 nM,"COc1ccccc1CNC(=N)Nc1nc(-c2ccccc2F)cs1 [Example 98, N-[4-(2-fluorophenyl)-1,3-thiazole-2-yl]-N′-(2-methoxybenzyl)guanidine]"
5,> 500 nM,"COc1ccccc1CNC(=N)Nc1nnc(-c2ccccc2)s1 [Example 175, N-(2-methoxybenzyl)-N′-(5-phenyl-1,3,4-thiadiazole-2-yl)guanidine acetate]"
6,50 to 500 nM,"COc1ccccc1CNC(=N)Nc1nc(-c2ccccc2Cl)cs1 [Example 43, N-[4-(2-chlorophenyl)-1,3-thiazole-2-yl]-N′-(2-methoxybenzyl)guanidine (2E)-But-2-endioate]"
7,50 to 500 nM,"N=C(NCc1ccccc1OCc1ccccc1)Nc1nccs1 [Example 17, N-[2-(benzyloxy)benzyl]-N′-1,3-thiazole-2-ylguanidine]"
8,< 50 nM,"COc1cccc(OC)c1CNC(=N)Nc1nc(-c2ccccc2)c[nH]1 [Example 187, N-(2,6-dimethoxybenzyl)-N′-(4-phenyl-1H-imidazole-2-yl)guanidine acetate]"
9,< 50 nM,"COc1cccc(OC)c1CNC(=N)Nc1nc(-c2ccc(F)c3ccccc23)cs1 [Example 114, N-(2,6-dimethoxybenzyl)-N′-[4-(4-fluoro-1-naphthyl)-1,3-thiazole-2-yl]guanidine]"
10,< 50 nM,"COc1cccc(OC)c1CNC(=N)Nc1nccs1 [Example 5, N-(2,6-dimethoxybenzyl)-N′-1,3-thiazole-2-ylguanidine]"
11,< 50 nM,"COc1cccc(Cl)c1CNC(=N)Nc1nc(-c2ncccn2)cs1 [Example 135, N-(2-chloro-6-methoxybenzyl)-N′-(4-pyrimidine-2-yl-1,3-thiazole-2-yl)guanidine]"
12,> 500 nM,"CC(=O)c1cccc(OCCCNC(=N)Nc2nccs2)c1 [Example 23, N-[3-(3-acetylphenoxy)propyl]-N′-1,3-thiazole-2-ylguanidine (2E)-But-2-endioate]"
13,< 50 nM,"COc1ccccc1CNC(=N)Nc1nccs1 [Example 1, N-(2-methoxybenzyl)-N′-1,3-thiazole-2-ylguanidine]"
